One molecule from patent US11173140B2, “Dosing regimens of PKC activators” (COGNITIVE RESEARCH ENTERPRISES, INC., priority 2015, dated 2021) can be followed below.

Each structure is given as a SMILES string.

A short description of the series: Bryostatin levels in brain and plasma (HPLC-MS), crossing of blood-brain barrier. Type of series: in vivo, mice. The following applies: for bryostatin (% of Control), BRAIN: mouse brain; for bryostatin (% of Control), PLASMA: mouse plasma. How it is done:
FIG. 5 illustrates the steady state concentration of bryostatin in the brain and plasma of mice following intravenous administration at the indicated doses.
Further evaluation was performed on bryostatin crossing the blood-brain-barrier (BBB) and the steady state levels of bryostatin in the brain and plasma of mice. […] The concentration of bryostatin in mice brain was less than its concentration in plasma.
In these studies, bryostatin was administered intravenously (i.v.) by injection into the tail vein of a mouse. Stock solutions of bryostatin were prepared in dimethyl sulfoxide (DMSO). Prior to administration to a mouse, the stock DMSO solution of bryostatin was diluted to a predetermined concentration by dilution with phosphate buffered saline/saline (PBS/saline).
The brain, whole blood, and plasma of mice in each dosing group as well as control mice was collected at 1 hour, 24 hours and 7 days after the last injection of bryostatin. PBMC's were isolated from blood and the brain, blood, plasma and PBMC's were frozen immediately using dry ice. Prior to analysis PBMC's were counted by diluting the sample (10 μl aliquot), 10-fold and the PBMC's counted using a Millipore Scepter cell counter. Every group of test animals had its own control group (N=3). Mice in the control group were injected with vehicle at a frequency similar to the dosing regimen and these animals were sacrificed and tested in parallel with mice in the test group.
Each measurement was performed four times (X4). BDNF levels were measured using ELISA and the concentration of protein PSD-95 was measured by Western Blot. High performance liquid chromatography-mass spectral analysis was used to measure the concentration of bryostatin in blood and brain samples based on a standard curve. Total protein concentrations were measured Coomassie Plus (Bradford) Protein Assay kit.
The therapeutic efficacy of bryostatin depends at least in part on its ability to cross the blood-brain-barrier (BBB). To evaluate whether dosing regimen influences the bryostatin levels in brain, mice were administered the drug intravenously. Table 9 illustrates the effect of dose and dosing regimen on bryostatin levels in the brain and plasma of mice. Sporadic dosing increased the levels of bryostatin in brain compared to plasma. See data for mice in cages 9 and 11.

Where [1] appears, read: cage 4: 25 μg/m^2 i.v. once weekly, 3 weeks, 24 h.
[2] abbreviates: cage 6: 10 μg/m^2 i.v. once weekly, 3 weeks, 24 h.
Setting [3] is: cage 9: 25 μg/m^2 i.v., weeks 1 and 3, 24 h.
[4] abbreviates: cage 11: 25 μg/m^2 i.v., weeks 1 and 2, 7 d delay.

On to `CCC/C=C/C=C/C(=O)O[C@H]1/C(=C/C(=O)OC)C[C@H]2C[C@H]([C@@H](C)O)OC(=O)C[C@H](O)C[C@@H]3C[C@H](OC(C)=O)C(C)(C)[C@](O)(C[C@@H]4C/C(=C/C(=O)OC)C[C@H](/C=C/C(C)(C)[C@]1(O)O2)O4)O3` [Bryostatin-1], for which the “increase of bryostatin concentration in brain” value (mice, 25 μg/m^2 weekly for three consecutive weeks versus 1 on/1 off or 2 on/1 off) is reported as “less effective”. The “crossing of the blood-brain-barrier” value (mice, intravenous) is listed as “crossed the BBB”. The “plasma concentrations of bryostatin” value (mice, single weekly injection for three consecutive weeks versus 1 on/1 off or 2 on/1 off) is “greater”. Also, the “levels of bryostatin in brain compared to plasma” value (mice, sporadic dosing (cages 9 and 11)) is “increased”. Moreover, the “bryostatin (% of Control), BRAIN” value reads like this: under setting [1], 0.0140 % of Control; under setting [2], 0.0202 % of Control; under setting [3], 0.0197 % of Control; under setting [4], 0.0217 % of Control. Moreover, the “bryostatin (% of Control), PLASMA” value under setting [1] is 0.0306 % of Control; the “bryostatin (% of Control), PLASMA” value under setting [2] is 0.0287 % of Control; the “bryostatin (% of Control), PLASMA” value under setting [3] is given as 0.0148 % of Control; the “bryostatin (% of Control), PLASMA” value under setting [4] was 0.0012 % of Control.
